Assays:
Type in all cases: physicochemical
long-term stability test [1] = conditions: 36 months, temperature 25° C. ±2° C.; relative humidity 60%±5%
[2] = acceleration test (stability); conditions: relative humidity 75%±5%; for (%) Impurity B (%) / Crystal form / appearance / Enantiomer (%) / Impurity A (%) / Impurity C (%) / Loss on drying (%) / Single largest impurity (%) / Total relevant substances (%) / content(%): 40° C.±2° C.
Protocol: (§1) Stability tests were performed on the samples of Examples 1, 2, 3, 4 and 5. […] Please refer to the results of the acceleration test (40° C.±2° C., relative humidity 75%±5%) of Table 1 and the results of the long-term stability test (25° C.±2° C., relative humidity 60%±10%) of Table 2.

long-term stability test [3] = conditions: 25° C.±2° C., relative humidity 60%±10%
Protocol: as §1

In the case of “(S)-2-(4-fluorophenyl)-4-(piperidine-3-aminomethyl)thieno[2,3-d]pyridazine-7-carboxamide hydrochloride [Example 1]”, the “changes in moisture, related substances, optical isomers and contents under storage conditions” value (long-term stability test [1]) is reported as “no significant changes” and the “changes in moisture, related substances, optical isomers and contents under storage conditions” value ([2]; 6 months, temperature 40° C.±2° C.) is reported as “no significant changes”.
In the case of “(S)-2-(4-fluorophenyl)-4-(piperidine-3-aminomethyl)thieno[2,3-d]pyridazine-7-carboxamide hydrochloride [Example 110601-3]”, the “(%) Impurity B (%)” value ([2]; 0 month) is reported as 0.00%, the Crystal form ([2]; 0 month) is reported as “unchanged” and the appearance ([2]; 0 month) is reported as “yellow crystalline powder”. For the same substance, the “Enantiomer (%)” value ([2]; 0 month, hydrochloride) was 0.09%, the “Impurity A (%)” value ([2]; 0 month, hydrochloride) was 0.28% and the “Impurity C (%)” value ([2]; 0 month, hydrochloride) was 0.02%. The “Loss on drying (%)” value ([2]; 0 month, hydrochloride) was 7.2%, the “Single largest impurity (%)” value ([2]; 0 month, hydrochloride) was 0.01% and the “Total relevant substances (%)” value ([2]; 0 month, hydrochloride) was 0.37%. The “content(%)” value ([2]; 0 month, hydrochloride) was 99.6%, the Crystal form ([2]; 1 month) was “unchanged” and the “Impurity C (%)” value ([2]; 1 month) was 0.02%. For the same substance, the appearance ([2]; 1 month) was “yellow crystalline powder”, the “(%) Impurity B (%)” value ([2]; 1 month, hydrochloride) was 0.03% and the “Enantiomer (%)” value ([2]; 1 month, hydrochloride) was 0.11%. The “Impurity A (%)” value ([2]; 1 month, hydrochloride) was 0.25%, the “Loss on drying (%)” value ([2]; 1 month, hydrochloride) was 7.2% and the “Single largest impurity (%)” value ([2]; 1 month, hydrochloride) was 0.02%. The “Total relevant substances (%)” value ([2]; 1 month, hydrochloride) was 0.39%, the “content(%)” value ([2]; 1 month, hydrochloride) was 100.0% and the Crystal form ([2]; 2 months) was “unchanged”. The appearance ([2]; 2 months) was “yellow crystalline powder”, the “(%) Impurity B (%)” value ([2]; 2 months, hydrochloride) was 0.03% and the “Enantiomer (%)” value ([2]; 2 months, hydrochloride) was 0.1%. The “Impurity A (%)” value ([2]; 2 months, hydrochloride) was 0.26%, the “Impurity C (%)” value ([2]; 2 months, hydrochloride) was 0.02% and the “Loss on drying (%)” value ([2]; 2 months, hydrochloride) was 7.2%. The “Single largest impurity (%)” value ([2]; 2 months, hydrochloride) was 0.03%, the “Total relevant substances (%)” value ([2]; 2 months, hydrochloride) was 0.38% and the “content(%)” value ([2]; 2 months, hydrochloride) was 98.2%. The “(%) Impurity B (%)” value ([2]; 3 months) was 0.00%, the Crystal form ([2]; 3 months) was “unchanged” and the “Impurity C (%)” value ([2]; 3 months) was 0.02%. For the same substance, the appearance ([2]; 3 months) was “yellow crystalline powder”, the “Enantiomer (%)” value ([2]; 3 months, hydrochloride) was 0.09% and the “Impurity A (%)” value ([2]; 3 months, hydrochloride) was 0.25%. For the same substance, the “Loss on drying (%)” value ([2]; 3 months, hydrochloride) was 7.2%, the “Single largest impurity (%)” value ([2]; 3 months, hydrochloride) was 0.02% and the “Total relevant substances (%)” value ([2]; 3 months, hydrochloride) was 0.33%. The “content(%)” value ([2]; 3 months, hydrochloride) was 99.9%, the “(%) Impurity B (%)” value ([2]; 6 months) was 0.00% and the Crystal form ([2]; 6 months) was “unchanged”. The “Impurity C (%)” value ([2]; 6 months) was 0.02%, the appearance ([2]; 6 months) was “yellow crystalline powder” and the “Enantiomer (%)” value ([2]; 6 months, hydrochloride) was 0.08%. For the same substance, the “Impurity A (%)” value ([2]; 6 months, hydrochloride) was 0.21%, the “Loss on drying (%)” value ([2]; 6 months, hydrochloride) was 7.1% and the “Single largest impurity (%)” value ([2]; 6 months, hydrochloride) was 0.02%. For the same substance, the “Total relevant substances (%)” value ([2]; 6 months, hydrochloride) was 0.28%, the “content(%)” value ([2]; 6 months, hydrochloride) was 99.7% and the Crystal form (long-term stability test [3]; 0 month) was “unchanged”. The “ImpurityB(%)” value (long-term stability test [3]; 0 month) was 0.00%, the “Content (calculated by dried product )(%)” value (long-term stability test [3]; 0 month, hydrochloride) was 99.6% and the “Enantiomers (%)” value (long-term stability test [3]; 0 month, hydrochloride) was 0.09%. For the same substance, the “ImpurityA(%)” value (long-term stability test [3]; 0 month, hydrochloride) was 0.28%, the “ImpurityC(%)” value (long-term stability test [3]; 0 month, hydrochloride) was 0.02% and the “Loss on drying (%)” value (long-term stability test [3]; 0 month, hydrochloride) was 7.2%. For the same substance, the “Single largest impurity (%)” value (long-term stability test [3]; 0 month, hydrochloride) was 0.01%, the “Total relevant substances (%)” value (long-term stability test [3]; 0 month, hydrochloride) was 0.37% and the appearance (long-term stability test [3]; 0 month, hydrochloride) was “yellow crystalline powder”. The Crystal form (long-term stability test [3]; 3 months) was “unchanged”, the “ImpurityB(%)” value (long-term stability test [3]; 3 months) was 0.00% and the “ImpurityC(%)” value (long-term stability test [3]; 3 months) was 0.02%. For the same substance, the “Content (calculated by dried product )(%)” value (long-term stability test [3]; 3 months, hydrochloride) was 100.2%, the “Enantiomers (%)” value (long-term stability test [3]; 3 months, hydrochloride) was 0.09% and the “ImpurityA(%)” value (long-term stability test [3]; 3 months, hydrochloride) was 0.26%. The “Loss on drying (%)” value (long-term stability test [3]; 3 months, hydrochloride) was 7.1%, the “Single largest impurity (%)” value (long-term stability test [3]; 3 months, hydrochloride) was 0.03% and the “Total relevant substances (%)” value (long-term stability test [3]; 3 months, hydrochloride) was 0.35%. The appearance (long-term stability test [3]; 3 months, hydrochloride) was “yellow crystalline powder”, the Crystal form (long-term stability test [3]; 6 months) was “unchanged” and the “ImpurityB(%)” value (long-term stability test [3]; 6 months) was 0.00%. The “Content (calculated by dried product )(%)” value (long-term stability test [3]; 6 months, hydrochloride) was 99.6%, the “Enantiomers (%)” value (long-term stability test [3]; 6 months, hydrochloride) was 0.08% and the “ImpurityA(%)” value (long-term stability test [3]; 6 months, hydrochloride) was 0.25%. For the same substance, the “ImpurityC(%)” value (long-term stability test [3]; 6 months, hydrochloride) was 0.02%, the “Loss on drying (%)” value (long-term stability test [3]; 6 months, hydrochloride) was 7.2% and the “Single largest impurity (%)” value (long-term stability test [3]; 6 months, hydrochloride) was 0.03%. The “Total relevant substances (%)” value (long-term stability test [3]; 6 months, hydrochloride) was 0.35%, the appearance (long-term stability test [3]; 6 months, hydrochloride) was “yellow crystalline powder” and the Crystal form (long-term stability test [3]; 9 months) was “unchanged”. The “ImpurityC(%)” value (long-term stability test [3]; 9 months) was 0.02%, the “Content (calculated by dried product )(%)” value (long-term stability test [3]; 9 months, hydrochloride) was 99.5% and the “Enantiomers (%)” value (long-term stability test [3]; 9 months, hydrochloride) was 0.09%. For the same substance, the “ImpurityA(%)” value (long-term stability test [3]; 9 months, hydrochloride) was 0.25%, the “ImpurityB(%)” value (long-term stability test [3]; 9 months, hydrochloride) was 0.01% and the “Loss on drying (%)” value (long-term stability test [3]; 9 months, hydrochloride) was 7.2%. For the same substance, the “Single largest impurity (%)” value (long-term stability test [3]; 9 months, hydrochloride) was 0.02%, the “Total relevant substances (%)” value (long-term stability test [3]; 9 months, hydrochloride) was 0.38% and the appearance (long-term stability test [3]; 9 months, hydrochloride) was “yellow crystalline powder”. For the same substance, the Crystal form (long-term stability test [3]; 12 months) was “unchanged”, the “ImpurityB(%)” value (long-term stability test [3]; 12 months) was 0.01% and the “Single largest impurity (%)” value (long-term stability test [3]; 12 months) was 0.02%. For the same substance, the “Content (calculated by dried product )(%)” value (long-term stability test [3]; 12 months, hydrochloride) was 99.9%, the “Enantiomers (%)” value (long-term stability test [3]; 12 months, hydrochloride) was 0.08% and the “ImpurityA(%)” value (long-term stability test [3]; 12 months, hydrochloride) was 0.25%. For the same substance, the “ImpurityC(%)” value (long-term stability test [3]; 12 months, hydrochloride) was 0.03%, the “Loss on drying (%)” value (long-term stability test [3]; 12 months, hydrochloride) was 7.3% and the “Total relevant substances (%)” value (long-term stability test [3]; 12 months, hydrochloride) was 0.35%. The appearance (long-term stability test [3]; 12 months, hydrochloride) was “yellow crystalline powder”, the Crystal form (long-term stability test [3]; 18 months) was “unchanged” and the “ImpurityB(%)” value (long-term stability test [3]; 18 months) was 0.00%. For the same substance, the “Single largest impurity (%)” value (long-term stability test [3]; 18 months) was 0.02%, the “Content (calculated by dried product )(%)” value (long-term stability test [3]; 18 months, hydrochloride) was 101.1% and the “Enantiomers (%)” value (long-term stability test [3]; 18 months, hydrochloride) was 0.06%. For the same substance, the “ImpurityA(%)” value (long-term stability test [3]; 18 months, hydrochloride) was 0.25%, the “ImpurityC(%)” value (long-term stability test [3]; 18 months, hydrochloride) was 0.03% and the “Loss on drying (%)” value (long-term stability test [3]; 18 months, hydrochloride) was 7.1%. The “Total relevant substances (%)” value (long-term stability test [3]; 18 months, hydrochloride) was 0.31%, the appearance (long-term stability test [3]; 18 months, hydrochloride) was “yellow crystalline powder” and the Crystal form (long-term stability test [3]; 24 months) was “unchanged”. The “Enantiomers (%)” value (long-term stability test [3]; 24 months) was 0.08%, the “ImpurityB(%)” value (long-term stability test [3]; 24 months) was 0.00% and the “ImpurityC(%)” value (long-term stability test [3]; 24 months) was 0.02%. For the same substance, the “Single largest impurity (%)” value (long-term stability test [3]; 24 months) was 0.02%, the “Content (calculated by dried product )(%)” value (long-term stability test [3]; 24 months, hydrochloride) was 98.6% and the “ImpurityA(%)” value (long-term stability test [3]; 24 months, hydrochloride) was 0.25%. The “Loss on drying (%)” value (long-term stability test [3]; 24 months, hydrochloride) was 7.3%, the “Total relevant substances (%)” value (long-term stability test [3]; 24 months, hydrochloride) was 0.34% and the appearance (long-term stability test [3]; 24 months, hydrochloride) was “yellow crystalline powder”. For the same substance, the Crystal form (long-term stability test [3]; 36 months) was “unchanged”, the “ImpurityC(%)” value (long-term stability test [3]; 36 months) was 0.02% and the “Single largest impurity (%)” value (long-term stability test [3]; 36 months) was 0.02%. For the same substance, the “Content (calculated by dried product )(%)” value (long-term stability test [3]; 36 months, hydrochloride) was 99.7%, the “Enantiomers (%)” value (long-term stability test [3]; 36 months, hydrochloride) was 0.06% and the “ImpurityA(%)” value (long-term stability test [3]; 36 months, hydrochloride) was 0.26%. For the same substance, the “ImpurityB(%)” value (long-term stability test [3]; 36 months, hydrochloride) was 0.01%, the “Loss on drying (%)” value (long-term stability test [3]; 36 months, hydrochloride) was 7.0% and the “Total relevant substances (%)” value (long-term stability test [3]; 36 months, hydrochloride) was 0.36%. The appearance (long-term stability test [3]; 36 months, hydrochloride) was “yellow crystalline powder”.

Reference: patent publication US20230183259A1, “Crystal Form Of Thiofuran Pyridazine Compound, Preparation Method Therefor And Application Thereof” (ZHEJIANG MEDICINE CO., LTD. XINCHANG PHARMACEUTICAL FACTORY, priority 2020, published 2023)
